We go through one molecule from patent publication US20060205788A1, “Compounds having activity at 5ht2c receptor and uses thereof” (priority 2003, published 2006).

As a reminder, the melting point is the temperature, or range, at which the solid turns liquid. As to `COc1ccc(C2=CCN(c3ccc(Cl)c(Cl)c3)C2=O)cc1OCCN1CCCCC1`, the melting point was 98 to 99 °C.
